Calls of active or inactive are those of the source. The calls are words filed in the database; no cut-off is given here.
What was measured:
[1] = test system: Plasma; assay: Inhibition of collagen-induced platelet aggregation in human platelet rich plasma at 10 uM preincubated for 5 mins followed by collagen addition and measured after 5 mins by aggregometer; type: functional, cell-free
[2] = target: T1, Proteinase-activated receptor 4 (Homo sapiens) (UniProt Q96RI0); assay: Antagonist activity at PAR4 in human platelet rich plasma assessed as inhibition of gamma-PAR4 agonist peptide (AYPGKF-NH2)-induced platelet aggregation at 200 nM preincubated for 5 mins followed by peptide addition and measured after 5 mins by aggregometer relative to control; type: cell-based; conditions: filed as antagonist, time 10.0 min
T1 sequence (whole entry): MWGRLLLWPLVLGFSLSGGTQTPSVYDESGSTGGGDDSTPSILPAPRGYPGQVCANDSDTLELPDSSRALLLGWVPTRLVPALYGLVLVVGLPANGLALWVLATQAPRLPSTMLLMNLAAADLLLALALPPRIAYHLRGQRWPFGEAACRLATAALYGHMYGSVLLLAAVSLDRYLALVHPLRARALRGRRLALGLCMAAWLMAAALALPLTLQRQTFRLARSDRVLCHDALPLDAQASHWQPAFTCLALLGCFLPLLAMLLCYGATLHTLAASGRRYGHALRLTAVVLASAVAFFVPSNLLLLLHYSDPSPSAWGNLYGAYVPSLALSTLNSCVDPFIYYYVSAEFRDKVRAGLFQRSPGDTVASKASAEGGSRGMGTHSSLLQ

[3] = test system: Plasma; assay: Inhibition of ADP-induced platelet aggregation in human platelet rich plasma at 10 uM preincubated for 5 mins followed by ADP addition and measured after 5 mins by aggregometer; type: functional, cell-free
[4] = test system: Plasma; assay: Inhibition of […] peptide-induced platelet aggregation in human platelet rich plasma at 10 uM preincubated for 5 mins followed by peptide addition and measured after 5 mins by aggregometer; type: functional, cell-free; conditions: time 10.0 min
[5] = Metabolic stability in human liver microsomes assessed as half-life at 1 uM measured upto 120 mins in presence of NADPH by LC-MS/MS analysis; type: ADME, Microsome
[6] = AUC (0 to last) in male Sprague-Dawley rat at 2 mg/kg, po measured after 24 hrs by LC-MS/MS analysis; type: ADME, organism-based; conditions: in vivo
[7] = Oral bioavailability in male Sprague-Dawley rat at 2 mg/kg measured after 24 hrs by LC-MS/MS analysis; type: ADME, organism-based; conditions: in vivo
[8] = test system: Plasma; assay: Inhibition of thrombin-induced platelet aggregation in human platelet rich plasma at 10 uM preincubated for 5 mins followed by thrombin addition and measured after 5 mins by aggregometer; type: functional, cell-free; conditions: time 10.0 min
[9] = Cytotoxicity against HEK293 cells assessed as reduction in cell viability incubated for 48 hrs by MTT assay; type: toxicity, cell-based; conditions: human
[10] = Cmax in male Sprague-Dawley rat at 0.5 mg/kg, iv measured after 24 hrs by LC-MS/MS analysis; type: ADME, organism-based; conditions: in vivo
[11] = test system: Plasma; assay: Inhibition of U46619-induced platelet aggregation in human platelet rich plasma at 10 uM preincubated for 5 mins followed by U46619 addition and measured after 5 mins by aggregometer; type: functional, cell-free
[12] = Protein binding in human plasma at 10 uM incubated for 6 hrs by LC-MS/MS analysis; type: ADME, cell-free; conditions: read-out: PPB (converted)
[13] = AUC (0 to last) in male Sprague-Dawley rat at 0.5 mg/kg, iv measured after 24 hrs by LC-MS/MS analysis; type: ADME, organism-based; conditions: in vivo
[14] = target: T2, Proteinase-activated receptor 1 (Homo sapiens, UniProt P25116); assay: Antagonist activity at human PAR1 expressed in HEK293/Galpha15 cells assessed as inhibition of SFFLRR-NH2-induced calcium mobilization incubated for 30 mins by FLIPR assay; type: functional, cell-based
T2 sequence (P25116 whole entry): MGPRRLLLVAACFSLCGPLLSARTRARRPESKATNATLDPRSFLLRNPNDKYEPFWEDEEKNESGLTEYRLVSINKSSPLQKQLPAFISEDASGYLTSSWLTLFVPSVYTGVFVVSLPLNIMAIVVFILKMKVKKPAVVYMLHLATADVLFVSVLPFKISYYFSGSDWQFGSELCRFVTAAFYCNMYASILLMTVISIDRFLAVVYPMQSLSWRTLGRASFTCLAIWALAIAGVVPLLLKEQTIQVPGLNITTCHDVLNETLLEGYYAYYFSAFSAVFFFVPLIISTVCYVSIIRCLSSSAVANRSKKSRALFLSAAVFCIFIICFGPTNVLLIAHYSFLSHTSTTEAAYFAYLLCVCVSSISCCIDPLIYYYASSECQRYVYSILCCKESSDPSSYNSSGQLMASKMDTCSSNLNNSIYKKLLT

[15] = Clearance in male Sprague-Dawley rat at 2 mg/kg, po measured after 24 hrs by LC-MS/MS analysis; type: ADME, organism-based; conditions: in vivo
[16] = Tmax in male Sprague-Dawley rat at 2 mg/kg, po measured after 24 hrs by LC-MS/MS analysis; type: ADME, organism-based; conditions: in vivo
[17] = Protein binding in rat plasma at 10 uM incubated for 6 hrs by LC-MS/MS analysis; type: ADME, cell-free; conditions: read-out: PPB (converted)
[18] = Toxicity in male C57BL/6 mouse assessed as prolongation of bleeding time at 10 mg/kg, po measured after 1.5 hrs by tail bleeding assay; type: organism-based; conditions: in vivo
[19] = Clearance in male Sprague-Dawley rat at 0.5 mg/kg, iv measured after 24 hrs by LC-MS/MS analysis; type: ADME, organism-based; conditions: in vivo
[20] = Antagonist activity at […] expressed in HEK293/Galpha15 cells assessed as inhibition of 2-furoyl-LIGRLO-NH2-induced calcium mobilization incubated for 30 mins by FLIPR assay; type: cell-based; conditions: HEK293/Galpha15, 0.5 h
[21] = Cmax in male Sprague-Dawley rat at 2 mg/kg, po measured after 24 hrs by LC-MS/MS analysis; type: ADME, organism-based; conditions: in vivo
[22] = target: T3, Proteinase-activated receptor 4 (Homo sapiens, UniProt Q96RI0); assay: Antagonist activity at human PAR4 expressed in HEK293/Galpha15 cells assessed as inhibition of AYPGKF-NH2-induced calcium mobilization incubated for 30 mins by FLIPR assay; type: functional, cell-based
T3 sequence (Q96RI0 whole entry): T1 sequence (whole entry)

[23] = Metabolic stability in rat liver microsomes assessed as half-life at 1 uM measured upto 120 mins in presence of NADPH by LC-MS/MS analysis; type: ADME, Microsome
[24] = test system: Plasma; assay: Inhibition of SFFLLRN-NH2 peptide-induced platelet aggregation in human platelet rich plasma at 10 uM preincubated for 5 mins followed by peptide addition and measured after 5 mins by aggregometer; type: functional, cell-free
[25] = Half-life in male Sprague-Dawley rat at 2 mg/kg, po measured after 24 hrs by LC-MS/MS analysis; type: ADME, organism-based; conditions: in vivo
[26] = Half-life in male Sprague-Dawley rat at 0.5 mg/kg, iv measured after 24 hrs by LC-MS/MS analysis; type: ADME, organism-based; conditions: in vivo
[27] = Tmax in male Sprague-Dawley rat at 0.5 mg/kg, iv measured after 24 hrs by LC-MS/MS analysis; type: ADME, organism-based; conditions: in vivo
[28] = Half-life in po dosed male Sprague-Dawley rat measured after 24 hrs by LC-MS/MS analysis; type: ADME, organism-based; conditions: in vivo
[29] = Clearance in iv dosed male Sprague-Dawley rat measured after 24 hrs by LC-MS/MS analysis; type: ADME, organism-based; conditions: in vivo
[30] = Tmax in po dosed male Sprague-Dawley rat measured after 24 hrs by LC-MS/MS analysis; type: ADME, organism-based; conditions: in vivo
[31] = Cmax in po dosed male Sprague-Dawley rat measured after 24 hrs by LC-MS/MS analysis; type: ADME, organism-based; conditions: in vivo
[32] = Half-life in iv dosed male Sprague-Dawley rat measured after 24 hrs by LC-MS/MS analysis; type: ADME, organism-based; conditions: in vivo
[33] = Oral bioavailability in male Sprague-Dawley rat measured after 24 hrs by LC-MS/MS analysis; type: ADME, organism-based; conditions: in vivo
[34] = Antagonist activity at PAR4 in mouse washed platelets assessed as inhibition of gamma-PAR4 agonist peptide (AYPGKF-NH2)-induced platelet aggregation preincubated for 5 mins followed by peptide addition and measured after 5 mins by aggregometer
[35] = Tmax in iv dosed male Sprague-Dawley rat measured after 24 hrs by LC-MS/MS analysis; type: ADME, organism-based; conditions: in vivo
[36] = Cmax in iv dosed male Sprague-Dawley rat measured after 24 hrs by LC-MS/MS analysis; type: ADME, organism-based; conditions: in vivo
[37] = AUC (0 to last) in po dosed male Sprague-Dawley rat measured after 24 hrs by LC-MS/MS analysis; type: ADME, organism-based; conditions: in vivo
[38] = AUC (0 to last) in iv dosed male Sprague-Dawley rat measured after 24 hrs by LC-MS/MS analysis; type: ADME, organism-based; conditions: in vivo

Row | SMILES | IC50 [1] [µM] | inhibition [2] [%] | IC50 [3] [µM] | inhibition [4] | half-life at 1 µM [5] [h] | AUC(0-t) at 24 h [6] [ng·h/mL] | bioavailability [7] [%] | inhibition [8] | IC50 at 48 h [9] [µM] | Cmax [10] [ng/mL] | IC50 [11] [µM] | fraction unbound at 6 h, 10 µM [12] | AUC(0-t) at 24 h [13] [ng·h/mL] | IC50 [14] [µM] | CL/F [15] [mL/min/kg] | Tmax [16] [h] | fraction unbound at 6 h, 10 µM [17] | Activity [18] | IC50 [20] [µM] | half-life at 1 µM [23] [h] | other results
1 | COc1ncc2c(-c3nc4cc(F)c5c(c4s3)C[C@H](COC(=O)Nc3cccc(C#N)c3)O5)cc(C)cc2n1 | > 10 | 91.2 | > 10 | Active | 4.16 | 1220 | 50.5 | Active | > 20 | 394 | > 10 | 0.0005 | 636 | > 3.16 | 25.4 | 1.67 | 0.0002 | Non-toxic | > 1 | 1.49 | clearance [19]: 12.8 mL/min/kg; Cmax [21]: 214 ng/mL; IC50 [22]: 0.00172 µM; IC50 [24]: > 10 µM; half-life [25]: 5.16 h; half-life [26]: 5.13 h; Tmax [27]: 4.8 min
2 | COCc1ncc2c(-c3nc4cc(F)c(OCCOC(=O)Nc5cc(F)cc(C#N)c5)cc4s3)cc(C)cc2n1 | > 10 | 90.3 | > 10 | Active | 0.747 | 488 | 13.2 | Active | > 20 | 944 | > 10 | 0.001 | 950 | > 3.16 | 65.3 | 1 | 0.0011 |  | > 1 | 2.12 | clearance [19]: 9.5 mL/min/kg; Cmax [21]: 146 ng/mL; IC50 [22]: 0.0056 µM; IC50 [24]: > 10 µM; half-life [25]: 1.78 h; half-life [26]: 2.2 h; Tmax [27]: 4.8 min
3 | COc1ncc2c(-c3nc4cc(F)c5c(c4s3)C[C@H](COC(=O)Nc3cc(F)cc(C#N)c3)O5)cc(C)cc2n1 | > 10 | 94.7 | > 10 | Active | 4.71 | 865 | 27.3 | Active | > 20 | 519 | > 10 | 0.0004 | 808 | > 3.16 | 37.7 | 1 | 0.0001 | Non-toxic | > 1 | 1.73 | clearance [19]: 9.8 mL/min/kg; Cmax [21]: 170 ng/mL; IC50 [22]: 0.00096 µM; IC50 [24]: > 10 µM; half-life [25]: 7.05 h; half-life [26]: 6.89 h; Tmax [27]: 4.8 min
4 | COc1cc(Cl)c2nc(-c3cc(C)cc4c(=O)n(C)cnc34)sc2c1 |  | 94.5 |  |  | 0.71 |  |  |  | > 20 |  |  |  |  | > 3.16 |  |  |  | Non-toxic | > 1 | 0.532 | half-life [28]: 2.16 h; clearance [29]: 57.7 mL/min/kg; Tmax [30]: 2.83 h; Cmax [31]: 6.4 ng/mL; half-life [32]: 1.4 h; bioavailability [33]: 3.71%; IC50 [34]: 0.084 µM; Tmax [35]: 4.8 min; Cmax [36]: 571 ng/mL; AUC(0-t) at 24 h [37]: 32 ng·h/mL; AUC(0-t) at 24 h [38]: 288 ng·h/mL

Source: ChEMBL document CHEMBL6083259, “Discovery of quinazoline-benzothiazole derivatives as novel potent protease-activated receptor 4 antagonists with improved pharmacokinetics and low bleeding liability” (Eur J Med Chem, 2024)
